# Results published in paper PMC5650142, “GPR40 partial agonists and AgoPAMs: Differentiating effects on glucose and hormonal secretions in the rodent” (PLoS ONE, 2017).
# “And” between values parts separate entries of the source, which are not always exact repeats. Identical values can stand only once.
# Key:
# [1] = tested on: wild type C57BL/6 and GLP-1R-/- mice; assay: Mouse glucose tolerance test (IPGTT, wild type and GLP-1R-/- mice); type: in vivo; design: Blood Glucose Net AUC: unit not given here; details: for Blood Glucose / Plasma Insulin: 30 mpk, 30 mg/kg; for Blood Glucose Net AUC: @ 30, individual animals
# Procedure: Wild type C57BL/6 mice and GLP-1R^-/- mice were fed a high fat diet (D12492i, Research Diets) for 6 weeks prior to GTT. On the day of study, mice were fasted at 1 h post lights on, and body weights were measured. […] Mice were then dosed PO at a volume of 10 ml/kg with vehicle (0.5% methylcellulose), MK-2305 (a GPR40 partial agonist described in Hauge et al) at 10 mg/kg, or AP1 at 30 mg/kg. Dosages of MK-2305 and AP1 were administered at maximal efficacious doses as determined by acute dose titrations with efficacy determined via reduction in glucose during an IPGTT (data not shown). […] Blood glucose was measured again (time = 0) just prior to an intraperitoneal (IP) dextrose challenge of 1 g/kg at 10 ml/kg dose volume (Dextrose, Hospira Inc., Lake Forrest IL). A subset of vehicle treated mice was injected with 0.9% NaCl saline to serve as negative control. Blood glucose was then measured at 10, 20, 40, 60, and 120 min after challenge. To capture insulin secretion during the IPGTT, blood via tail vein was collected at t = - 60, 0, 10, 20, 40, 60 min post challenge.
# Net AUC was calculated by subtracting the average AUC of the saline group from each groups’ total AUC.
# (§1) Blood for insulin, glucagon, GLP-1, GIP, and PYY measurements was collected into K2EDTA Microtainer tubes (BD, Franklin Lakes, NJ) pre-treated with DPP4 inhibitor (Millipore, Billerica, MA) and cOmplete™ Protease Inhibitor Cocktail Tablets (Roche Diagnostics, Indianapolis, IN). Tubes were centrifuged for 10 minutes at 5000 RPM, and plasma was aliquotted for analysis. Plasma insulin levels were measured via EIA (Mesoscale Discovery ELISA Kit, Gaithersburg MD). Rat plasma total GLP-1 was measured using Total GLP-1 (ver.2) Assay Kit (Cat#: K150JVC). The measurement of active GLP-1 was carried out in a similar manner as that described for total GLP-1 assay with the exception that MSD Active GLP-1 (ver. 2) assay kit (Cat# K150JWC) was used. Rat plasma glucagon was measured using an in-house glucagon assay developed as a MSD format sandwich immunoassay (Merck & Co., Inc., MRL, Kenilworth, NJ USA). The antibody specificity was cross validated via mass- spec using procedures described in Lee et al. Briefly, MSD Streptavidin Gold plates were coated with 2 μg/ml biotin mouse monoclonal antibody generated to glucagon. Test samples were added to the plates and a separate Sulfo- tagged monoclonal antibody was used to detect the captured glucagon protein (2 μg/ml). The ELISA was carried out in the standard reagents in the MSD format. The plate was read on the SECTOR Imager 6000 Reader. Metabolic hormones GIP (Gastric Inhibitory Polypeptide) and PYY (Peptide YY) were measured in rat plasma using the Rat Metabolic Magnetic Bead Panel (EMD Millipore, Billerica, MA). The assay was performed according to manufacturer protocol.
# [2] = tested on: wild type and GPR40-/- mice; assay: Mouse incretin measurements (plasma glucagon, wild type and GPR40-/- mice); type: in vivo; details: for Plasma Glucagon: @ 30, individual animals (Fig 6A)
# Procedure: Wild type and GPR40-/- mice were weighed the day prior to dosing. Food was removed from mice at lights on. 2 hours later mice were dosed via oral gavage (PO) at a volume of 10 ml/kg with vehicle (0.5% methylcellulose), AP1 at 30 mg/kg, or AP3 at 30 mg/kg. At 60 minutes post dose, mice were euthanized via CO2 asphyxiation. Blood was collected via cardiac puncture.
# as §1
# [3] = GLP-1R-/- and wild type mice, MK-2305 10 mg/kg, AP1 30 mg/kg PO
# [4] = KO mice, Time 0, individual animals
# [5] = KO mice, Time 10, individual animals
# [6] = KO mice, Time 20, individual animals
# [7] = KO mice, Time 40, individual animals
# [8] = KO mice, Time 60, individual animals
# [9] = KO mice, Time -60, individual animals
# [10] = WT mice, Time 0, individual animals
# [11] = WT mice, Time 10, individual animals
# [12] = WT mice, Time 20, individual animals
# [13] = WT mice, Time 60, individual animals
# [14] = WT mice, Time -60, individual animals
smiles,measurement,setting,value
COc1ccc(F)c(-c2ccc([C@@H]3CCc4ccc([C@H](C5CC5)[C@H](C)C(=O)O)cc4O3)cc2)c1 [AP1],blood glucose excursion during IPGTT,[1]; [3],reduced
same,insulin following dextrose challenge (IPGTT),[1]; [3],increased insulin following the dextrose challenge in both knockout and wild type mice
same,Blood Glucose,[1]; [4],84 mg/dL and 106 mg/dL and 108 mg/dL and 102 mg/dL and 90 mg/dL and 97 mg/dL and 104 mg/dL
same,Plasma Insulin,[1]; [4],1.042 ng/ml and 1.305 ng/ml and 1.695* ng/ml and 1.425 ng/ml and 1.092 ng/ml and 1.099 ng/ml and 1.131 ng/ml
same,Blood Glucose,[1]; [5],140 mg/dl and 143 mg/dl (2×) and 241 mg/dl and 103 mg/dl and 112 mg/dl and 152 mg/dl
same,Plasma Insulin,[1]; [5],1.818 ng/ml and 1.304 ng/ml and 8.134* ng/ml and 2.799 ng/ml and 1.233 ng/ml and 2.777 ng/ml and 1.836 ng/ml
same,Blood Glucose,[1]; [6],79 mg/dL and 107 mg/dL and 145 mg/dL and 126 mg/dL and 76 mg/dL and 80 mg/dL and 104 mg/dL
same,Plasma Insulin,[1]; [6],1.06 ng/ml and 0.804 ng/ml and 3.066* ng/ml and 1.963 ng/ml and 0.693 ng/ml and 1.694 ng/ml and 1.832 ng/ml
same,Blood Glucose,[1]; [7],58 mg/dL and 108 mg/dL
same,Plasma Insulin,[1]; [7],0.728 ng/ml and 0.449 ng/ml and 1.028* ng/ml and 0.546 ng/ml and 0.513 ng/ml and 0.552 ng/ml and 0.628 ng/ml
same,Blood Glucose,[1]; [8],75 mg/dL and 116 mg/dL and 106 mg/dL and 69 mg/dL and 92 mg/dL and 78 mg/dL and 110 mg/dL
same,Plasma Insulin,[1]; [8],0.445 ng/ml and 0.264 ng/ml and 0.373* ng/ml and 0.39 ng/ml and 0.327 ng/ml and 0.218 ng/ml and 0.377 ng/ml
same,Blood Glucose,"[1]; KO mice, Time 120, individual animals",66 mg/dL and 102 mg/dL and 86 mg/dL and 103 mg/dL and 77 mg/dL and 71 mg/dL and 121 mg/dL
same,Blood Glucose,[1]; [9],190 mg/dl and 206 mg/dl (2×) and 172 mg/dl and 181 mg/dl and 204 mg/dl and 230 mg/dl
same,Plasma Insulin,[1]; [9],0.47 ng/ml and 0.396 ng/ml and 1.185* ng/ml and 0.53 ng/ml and 0.25 ng/ml and 0.347 ng/ml and 0.673 ng/ml
same,Blood Glucose,"[1]; KO mice, Time -90, individual animals",196 mg/dL and 173 mg/dL and 164 mg/dL and 153 mg/dL and 203 mg/dL and 170 mg/dL and 187 mg/dL
same,Blood Glucose Net AUC,[1]; KO mice,-16949 and -21574 and -17294 and -16394 and -19399 and -20469 and -21384
same,Blood Glucose,[1]; [10],89 mg/dl and 78 mg/dl and 112 mg/dl and 100 mg/dl and 85 mg/dl (2×) and 93 mg/dl
same,Plasma Insulin,[1]; [10],3.656 ng/ml and 8.79 ng/ml and 40.989* ng/ml and 1.246 ng/ml and 3.561 ng/ml and 1.813 ng/ml and 4.832 ng/ml
same,Blood Glucose,[1]; [11],166 mg/dL and 152 mg/dL and 163 mg/dL and 220 mg/dL and 195 mg/dL and 184 mg/dL and 168 mg/dL
same,Plasma Insulin,[1]; [11],14.251 ng/ml and 18.912 ng/ml and 38.822* ng/ml and 7.869 ng/ml and 14.176 ng/ml and 5.575 ng/ml and 12.785 ng/ml
same,Blood Glucose,[1]; [12],91 mg/dL and 101 mg/dL and 128 mg/dL and 137 mg/dL and 134 mg/dL and 97 mg/dL and 94 mg/dL
same,Plasma Insulin,[1]; [12],4.859 ng/ml and 8.657 ng/ml and 36.643* ng/ml and 4.529 ng/ml and 12.495 ng/ml and 4.309 ng/ml and 7.23 ng/ml
same,Plasma Insulin,"[1]; WT mice, Time 40, individual animals",1.713 ng/ml and 4.072 ng/ml and 12.598* ng/ml and 2.583 ng/ml and 4.314 ng/ml and 1.11 ng/ml and 3.089 ng/ml
same,Blood Glucose,[1]; [13],92 mg/dL and 102 mg/dL and 81 mg/dL and 87 mg/dL and 72 mg/dL and 96 mg/dL and 104 mg/dL
same,Plasma Insulin,[1]; [13],1.617 ng/ml and 3.058 ng/ml and 8.765* ng/ml and 1.2 ng/ml and 2.106 ng/ml and 0.602 ng/ml and 3.057 ng/ml
same,Blood Glucose,"[1]; WT mice, Time 120, individual animals",76 mg/dl and 96 mg/dl (2×) and 126 mg/dl and 113 mg/dl and 92 mg/dl and 93 mg/dl
same,Blood Glucose,[1]; [14],175 mg/dL and 176 mg/dL and 194 mg/dL and 178 mg/dL and 190 mg/dL and 196 mg/dL and 226 mg/dL
same,Plasma Insulin,[1]; [14],0.973 ng/ml (2×) and 2.15 ng/ml and 4.52* ng/ml and 0.764 ng/ml and 1.183 ng/ml and 1.616 ng/ml
same,Blood Glucose,"[1]; WT mice, Time -90, individual animals",168 mg/dL and 146 mg/dL and 183 mg/dL and 161 mg/dL and 151 mg/dL and 156 mg/dL and 176 mg/dL
same,Blood Glucose Net AUC,[1]; WT mice,-13948 and -15303 and -14628 and -14263 and -12238 and -14078 and -14253
same,Plasma Glucagon,[2]; KO mice,13.34 pg/mL and 13.81 pg/mL and 52.65 pg/mL and 26.95 pg/mL and 36.14 pg/mL and 35.65 pg/mL
same,circulating glucagon,"[2]; WT mice, 30 mg/kg PO, 1h post dose",increase
same,Plasma Glucagon,[2]; WT mice,101.77 pg/mL and 108.33 pg/mL and 114.33 pg/mL and 421.21 pg/mL and 183.75 pg/mL and 252.53 pg/mL and 120.41 pg/mL
